Earlier results as cited in publication PMC9603901, “Therapeutic Potential of Antimicrobial Peptide PN5 against Multidrug-Resistant E. coli and Anti-Inflammatory Activity in a Septic Mouse Model” (Microbiology Spectrum, 2022).
≈ marks a conversion by molar mass, not a printed value.

Key:
Design in all cases: method as in Asan hospital; key to susceptibility category: S: susceptible; R: resistant; I: intermediate
[1] = system: MDR E. coli ASEC 17; conditions: ref Asan hospital, cited from earlier work; for MIC: ASEC 17 (AmpC), resistance information of clinical isolate; for susceptibility category: ASEC 17
[2] = system: MDR E. coli ASEC 18; conditions: ref Asan hospital, cited from earlier work; for MIC: ASEC 18 (AmpC), resistance information of clinical isolate; for susceptibility category: ASEC 18
[3] = system: MDR E. coli ASEC 3; conditions: ref Asan hospital, cited from earlier work; for MIC: ASEC 3 (NDM-5), resistance information of clinical isolate; for susceptibility category: ASEC 3
[4] = system: MDR E. coli ASEC 19; conditions: ref Asan hospital, cited from earlier work; for MIC: ASEC 19 (AmpC), resistance information of clinical isolate; for susceptibility category: ASEC 19
[5] = system: MDR E. coli ASEC 10; conditions: ref Asan hospital, cited from earlier work; for MIC: ASEC 10 (ESBL), resistance information of clinical isolate; for susceptibility category: ASEC 10
[6] = system: MDR E. coli ASEC 6; conditions: ref Asan hospital, cited from earlier work; for MIC: ASEC 6 (ESBL), resistance information of clinical isolate; for susceptibility category: ASEC 6
[7] = system: MDR E. coli ASEC 9; conditions: ref Asan hospital, cited from earlier work; for MIC: ASEC 9 (ESBL), resistance information of clinical isolate; for susceptibility category: ASEC 9
[8] = system: MDR E. coli ASEC 7; conditions: ref Asan hospital, cited from earlier work; for MIC: ASEC 7 (ESBL), resistance information of clinical isolate; for susceptibility category: ASEC 7
[9] = system: MDR E. coli ASEC 2; conditions: ref Asan hospital, cited from earlier work; for MIC: ASEC 2 (NDM-7), resistance information of clinical isolate; for susceptibility category: ASEC 2
[10] = system: MDR E. coli ASEC 8; conditions: ref Asan hospital, cited from earlier work; for MIC: ASEC 8 (ESBL), resistance information of clinical isolate; for susceptibility category: ASEC 8
[11] = system: MDR E. coli ASEC 1; conditions: ref Asan hospital, cited from earlier work; for MIC: ASEC 1 (carbapenemase NDM-1), resistance information of clinical isolate; for susceptibility category: ASEC 1
[12] = system: MDR E. coli ASEC 13; conditions: ref Asan hospital, cited from earlier work; for MIC: ASEC 13 (AmpC), resistance information of clinical isolate; for susceptibility category: ASEC 13
[13] = system: MDR E. coli ASEC 4; conditions: ref Asan hospital, cited from earlier work; for MIC: ASEC 4 (ESBL), resistance information of clinical isolate; for susceptibility category: ASEC 4
[14] = system: MDR E. coli ASEC 15; conditions: ref Asan hospital, cited from earlier work; for MIC: ASEC 15 (AmpC), resistance information of clinical isolate; for susceptibility category: ASEC 15
[15] = system: MDR E. coli ASEC 14; conditions: ref Asan hospital, cited from earlier work; for MIC: ASEC 14 (AmpC), resistance information of clinical isolate; for susceptibility category: ASEC 14
[16] = system: MDR E. coli ASEC 12; conditions: ref Asan hospital, cited from earlier work; for MIC: ASEC 12 (AmpC), resistance information of clinical isolate; for susceptibility category: ASEC 12
[17] = system: MDR E. coli ASEC 16; conditions: ref Asan hospital, cited from earlier work; for MIC: ASEC 16 (AmpC), resistance information of clinical isolate; for susceptibility category: ASEC 16
[18] = system: MDR E. coli ASEC 5; conditions: ref Asan hospital, cited from earlier work; for MIC: ASEC 5 (ESBL), resistance information of clinical isolate; for susceptibility category: ASEC 5
[19] = system: MDR E. coli ASEC 11; conditions: ref Asan hospital, cited from earlier work; for MIC: ASEC 11 (ESBL), resistance information of clinical isolate; for susceptibility category: ASEC 11

## CO[C@@]1(NC(=O)Cc2cccs2)C(=O)N2C(C(=O)O)=C(COC(N)=O)CS[C@@H]21 [Cefoxitin]
[1]
  MIC: > 16 µg/mL
  susceptibility category: R
[2]
  MIC: > 16 µg/mL
  susceptibility category: R
[3]
  MIC: > 16 µg/mL
  susceptibility category: R
[4]
  MIC: > 16 µg/mL
  susceptibility category: R
[5]
  MIC: <= 8 μg mL-1
  susceptibility category: S
[6]
  MIC: > 16 µg/mL
  susceptibility category: R
[7]
  MIC: 16 µg/mL (≈ 37.4 µM)
  susceptibility category: I
[8]
  MIC: <= 8 μg mL-1
  susceptibility category: S
[9]
  MIC: > 16 µg/mL
  susceptibility category: R
[10]
  MIC: <= 8 μg mL-1
  susceptibility category: S
[11]
  MIC: > 16 µg/mL
  susceptibility category: R
[12]
  MIC: > 16 µg/mL
  susceptibility category: R
[13]
  MIC: > 16 µg/mL
  susceptibility category: R
[14]
  MIC: > 16 µg/mL
  susceptibility category: R
[15]
  MIC: > 16 µg/mL
  susceptibility category: R
[16]
  MIC: > 16 µg/mL
  susceptibility category: R
[17]
  MIC: > 16 µg/mL
  susceptibility category: R
[18]
  MIC: > 16 µg/mL
  susceptibility category: R
[19]
  MIC: <= 8 μg mL-1
  susceptibility category: S

## CO/N=C(\C(=O)N[C@@H]1C(=O)N2C(C(=O)O)=C(CSc3nc(=O)c(=O)[nH]n3C)CS[C@H]12)c1csc(N)n1 [Ceftriaxone]
[6]
  MIC: > 32 µg/mL
  susceptibility category: R
[11]
  MIC: > 32 µg/mL
  susceptibility category: R
[12]
  MIC: > 32 µg/mL
  susceptibility category: R
[13]
  MIC: > 32 µg/mL
  susceptibility category: R
[16]
  MIC: > 32 µg/mL
  susceptibility category: R
[18]
  MIC: > 32 µg/mL
  susceptibility category: R

## C[C@@H](O)[C@H]1C(=O)N2C(C(=O)O)=C(SCCN=CN)C[C@H]12 [Imipenem]
[1]
  MIC: <= 1 μg mL-1
  susceptibility category: S
[2]
  MIC: <= 1 μg mL-1
  susceptibility category: S
[3]
  MIC: > 8 µg/mL
  susceptibility category: R
[4]
  MIC: <= 1 μg mL-1
  susceptibility category: S
[5]
  MIC: <= 1 μg mL-1
  susceptibility category: S
[6]
  MIC: > 8 µg/mL
  susceptibility category: R
[7]
  MIC: <= 1 μg mL-1
  susceptibility category: S
[8]
  MIC: <= 1 μg mL-1
  susceptibility category: S
[9]
  MIC: 8 µg/mL (≈ 26.7 µM)
  susceptibility category: R
[10]
  MIC: <= 1 μg mL-1
  susceptibility category: S
[11]
  MIC: <= 4 μg mL-1
  susceptibility category: R
[12]
  MIC: > 8 µg/mL
  susceptibility category: R
[13]
  MIC: > 8 µg/mL
  susceptibility category: R
[14]
  MIC: <= 1 μg mL-1
  susceptibility category: S
[15]
  MIC: 8 µg/mL (≈ 26.7 µM)
  susceptibility category: R
[16]
  MIC: > 8 µg/mL
  susceptibility category: R
[17]
  MIC: <= 1 μg mL-1
  susceptibility category: S
[18]
  MIC: > 8 µg/mL
  susceptibility category: R
[19]
  MIC: <= 1 μg mL-1
  susceptibility category: S
